# Where “and” joins values, the source holds several entries; their conditions need not be identical. Equal values may be shown once. Read-outs that look alike come from different tables or passages of the source. Non-standard residues stand in square brackets, D forms with d. Residues, ends and D or L forms follow the SMILES beside them. *: point of attachment. Bz = O=C(c1ccccc1)*; Sar = CNCC(=O)O
# How the values were obtained:
# SrtA [1] = molecular target: T1, SrtA (Staphylococcus aureus, UniProt Q2FV99); test: biochemical; parameters: species or system S. aureus; details: for FRET inhibition: 200 nM SrtA, 200 μM inhibitor, HEPES buffer; for FRET inhibition / inhibition at 200 µM: mean ± SE, triplicate; for IC50: IC50, inhibitor 1 μM to 1500 μM, corrected for molar extinction coefficient; for inhibition at 200 µM: read-out: FRET inhibition, 200 nM SrtA, 200 μM inhibitor, HEPES buffer
# T1 construct: His6 (N); made in house; host or cells: E. coli BL21, pET21b plasmid
# T1 sequence (Q2FV99 60-206): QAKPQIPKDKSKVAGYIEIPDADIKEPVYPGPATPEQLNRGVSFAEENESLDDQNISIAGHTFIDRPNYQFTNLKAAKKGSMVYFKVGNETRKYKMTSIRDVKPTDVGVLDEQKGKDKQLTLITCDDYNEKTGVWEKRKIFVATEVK
# Experimental: In order to screen the activity of SrtA inhibitors, a FRET-based functional assay was used which employs an internally quenched fluorescent (IQF) substrate, Abz-LPETGK(Dnp)-NH2 (Fig. S37a ^†).[5] […] 5-((C4-Nitrobenzyl)thio)-1,3,4-thiadiazol-2-amine was used as a reference inhibitor in the experiment.[42] […]
# Fluorescence resonance energy transfer assay
# For the FRET assay, the compound 5-((4-nitrobenzyl) thio)-1,3,4-thiadiazol-2-amine was used as a reference and prepared by dissolving 3 µL of the available stock (10 mM) in […] HEPES and 1% DMSO to afford a 300 µM stock concentration for the assay. This reference compound […]
# FRET assay was performed with an internally quenched fluorogenic (IQF) substrate to determine the inhibitory activity of the synthesized peptidomimetics. The assay was performed in a 30 μl reaction mixture in HEPES buffer (50 mM HEPES, 150 mM NaCl, 5 mM CaCl2, 0.05% Tween20, pH 7.5). SrtA solution (200 nM) was preincubated with compounds (200 μM) for 15 min at 22 °C followed by the addition of the substrate solution (25 μM Abz-LPETGK(Dnp)-NH2, 5 mM H-Gly3-OH, final assay concentration) in the same buffer. The cleavage of the Abz/Dnp-substrate was quantified by an increase in the fluorescence signal.
# The fluorescence signal was monitored each minute for 45 minutes and plotted to obtain the fluorescence rate as a line curve. The assay was performed in 384 well Corning NBS microplates (flat bottom, no lid, low flange, non-binding surface, non-sterile, white polystyrene).
# Fluorescence intensity was measured at emission and excitation wavelengths of […] using a Spectramax iD5 plate reader (Molecular Devices, San Jose, CA, USA). Triplicate measurements were taken for each data point to ensure the reproducibility of the results. The average value of the fluorescence signal readouts was plotted against time over […] for each compound to produce a line curve using Origin. The reference compound was used in the experiment to act as a positive control. The slope of each compound curve (Sx) and the slope of the substrate (S0) were extracted using the linear fit function in Microsoft Origin 2019. The percent inhibition was calculated according to the following equation: inhibitory rate = (1 – Sx/S 0) × 100%. For IC50 values, Sx values at different concentrations were plotted against log transformed concentration values and fitted with a sigmodial fit using the DoseResp function using Origin. The bottom asymptote of the dose-response curve was fixed at 0. The data were reported as mean ± SE%. […]
# [2] = system: S. aureus strain CCUG10778; test: Growth profiling of S. aureus (absorbance at 600 nm); format: cell-based; details: for effect on bacterial growth (absorbance plateau, OD600): 2 to 128 μg mL^−1, TSB medium, up to 48 hours
# Experimental: To assess whether our most promising compounds have a possibility of being potential antivirulent compounds, they were tested with pathogenic S. aureus bacteria to assess the peptidomimetic inhibitors for their ability to inhibit bacterial growth. Firstly, our compounds were incubated with S. aureus bacteria in a 96-well plate in Tryptic Soy Broth (TSB) medium, while we also included the reference compound used in the single-point in vitro inhibition studies. So far, the covalent binding thiadiazol reference compound was not tested in this respect, but was one of the most promising compounds identified in an earlier screening campaign.[42] The inhibitors were added at various concentrations, ranging from 2 μg mL^−1 to 128 μg mL^−1, and the absorbance at 600 nm was measured as an indication of their optical density (OD600) and by that the bacteria's ability to propagate in liquid media. In the negative control experiments, the bacteria consistently reached an OD600 of 0.6 between 6 and 12 hours (Fig. 3). […]
# For the growth profiling experiments the S. aureus strain CCUG10778 was cultured overnight in sterile TSB medium and diluted 1:100 by adding 1 μL into TSB medium in a sterilized, clear polystyrene 96-well plate to a final assay volume of 100 μL. Subsequently, peptides were added to the bacteria from filter sterilized stocks in MQ-H2O to give 2, 8, 32 and 128 μg/ml final concentrations. Then, bacteria were incubated at 37 °C for 3, 6, 12, 24, 36 or 48 hours and their absorbance was measured at 600 nm using a Varioskan Lux microplate reader (Thermo Fisher Scientific, Waltham, MA, USA). All individual samples were carried out in triplicate. […]
# Then, bacteria […]
# were incubated at 37 °C for 24 hours and centrifuged for 3 minutes at 3000 rpm in an Eppendorf Microstar 30r centrifuge. The supernatant was discarded and the cells were washed once with sterilized PBS and centrifuged. 100 μL PBS-T (PBS + 0.1% Triton-X) was added to the cells for 15 minutes to induce cell membrane permeabilization. After removal of the PBS-T by centrifugation, 100 μL of 5 μM Sytox Green (Invitrogen, Waltham, MA, USA) solution in PBS
# S. aureus = test: Sytox Green fluorescence measurement of S. aureus incubated with inhibitors; format: cell-based; details: for Fluorescence value (Sytox Green, 533 nm): 24 hours, control 294.0 ± 0.1
# Experimental: To achieve this, S. aureus was again incubated with our peptidomimetic inhibitors, specifically, 18, 22, 23 and 24 at 8, 32 and 128 μg mL^−1 and harvested after 24 hours to ensure the bacteria reach their growth plateau. Peptide 24 was included to confirm the influence of the N-terminal benzyl group. The bacterial cells were permeabilized and their […] were labelled using Sytox Green and subsequently their fluorescence was measured quantitatively. […] Bacteria incubated with 32 and 128 μg mL^−1 of 18 as well as 128 μg mL^−1 of 22 were also imaged using fluorescence microscopy (Fig. 4). In the control sample, planktonic bacteria could be abundantly observed (Fig. 4a). While it was hard to distinguish the microscopy images for the less strong inhibition (Fig. 4b and c), it became evident from the sample with 128 μg mL^−1 of 18 that visually bacterial growth was affected as well (Fig. 4d) where the bacteria were much more sparsely distributed in the sample. […]
# For the fluorescence experiments S. aureus was cultured overnight in sterile TSB medium and diluted 1:250 by adding 2.5 μL bacterial culture into TSB medium in sterilized 1.5 mL Eppendorf tubes to a final volume of 500 μL. Subsequently, peptides were added to the bacteria from filter sterilized stocks in MQ-H2O to give 8, 32 and 128 μg/ml final concentrations. Then, bacteria were incubated at 37 °C for 24 hours and centrifuged for 3 minutes at 3000 rpm in an Eppendorf Microstar 30r centrifuge. The supernatant was discarded and the cells were washed once with sterilized PBS and centrifuged. 100 μL PBS-T (PBS + 0.1% Triton-X) was added to the cells for 15 minutes to induce cell membrane permeabilization. After removal of the PBS-T by centrifugation, 100 μL of 5 μM Sytox Green (Invitrogen, Waltham, MA, USA) solution in PBS […]
# was added and the cells were stained for 30 minutes, centrifuged and washed with PBS twice.
# For the fluorescence measurements, the cells were resuspended with 100 μL of PBS and added in a sterilized, white plastic polystyrene 96-well plate and their fluorescence was measured by exciting the samples at 488nm and measuring the fluorescence intensity at 533 nm in a microplate reader. All individual samples were carried out in duplicate. For the fluorescence microscopy experiments, the cells were treated in the same, but resuspended in 10 μL of PBS and 5 μL of bacterial suspension was spotted on a glass target plate dipped in a melted solution of 1.2% agarose in Tris-HCl (50 mM) to ensure fixation of the sample. The sledes were covered by a cover glass and observed on an Axio Imager Z2m fluorescence microscope (Zeiss, Jena, Germany) at 100 times magnification at the emission wavelength of […]
# Biofilm inhibition assays
# For the biofilm inhibition experiments the S. aureus strain CCUG10778 was cultured overnight in sterile BHI broth. A sterilized, clear polystyrene 96-well plate was prepared by coating with plasma by addition of 20% of final assay volume rabbit plasma to the wells and incubating overnight at 4 °C. Then, the cultured strain was diluted 1:100 by adding 2 μL into BHI medium on the plasma coated plate to a total volume of 200 μL. Subsequently, peptides were added to the bacteria from filter sterilized stocks in MQ-H2O to give 8, 32 and 128 μg/ml final concentrations and incubated for 12 hours at 37 °C without shaking. The supernatant was removed and the wells were rinsed with PBS and 100 μL of 1% crystal violet solution (diluted in PBS) was added and the biofilms were stained for 10 minutes. The wells were washed with PBS twice and 200 μL of a 95% ethanol solution in water was added to solubilize the cells for 30 minutes. 100 μL was transferred into a new 96-well plate and the absorbance measured at 595 nm using a Varioskan Lux microplate reader. All individual samples were carried out in […]
# All computational studies and analysis steps were performed employing the YASARA molecular modeling program.6, 7
# Molecular graphics were created with YASARA (www.yasara.org) and POVRay […]
# [3] = system: S. aureus strain CCUG10778 biofilm; details: BHI, rabbit plasma coated plate
# SrtA [4] = details: cited from earlier work
# SrtA [5] = molecular target: T1, SrtA; format: biochemical, S. aureus; details: 200 nM SrtA, inhibitor at 10 μM (detector oversaturation at 200 μM)
compound,measurement,setting,value
BzLPRDA [Compound 11],FRET inhibition,SrtA [1],37% and 37.2 ± 3.1%
"H-FLPRDA-NH2 [Compound 22, FLPRDA]",decrease in absorbance compared to the control,"[2]; 128 μg mL^−1, 48 hours, OD600",22%
same,"effect on bacterial growth (absorbance plateau, OD600)",[2],clear effect on the plateau of the absorbance
same,"Fluorescence value (Sytox Green, 533 nm)",S. aureus; 8 μg/ml,302.3 ± 0.5
same,"Fluorescence value (Sytox Green, 533 nm)",S. aureus; 32 μg/ml,297.4 ± 0.3
same,decrease in fluorescence signal (in words),"S. aureus; 128 μg mL^−1, 24 hours",minor effect
same,"Fluorescence value (Sytox Green, 533 nm)",S. aureus; 128 μg/ml,275.2 ± 1.1
same,FRET inhibition,SrtA [1],70.1 ± 5.7%
same,IC50,SrtA [1],185.3 ± 1.5 µM
same,inhibition at 200 µM,SrtA [1],70%
H2N-LPRDA-OH [Compound 1],FRET inhibition,SrtA [1],29.2 ± 2.6%
ChLPRDA [Compound 12],FRET inhibition,SrtA [1],21.6 ± 4.2%
CbzLPRDA [Compound 14],FRET inhibition,SrtA [1],17.0 ± 2.8%
"CC(C)C[C@H](NC(=O)c1ccccc1)C(=O)N1CCC[C@H]1C(=O)N[C@@H](CCCNC(=N)N)C(=O)N[C@@H](CC(=O)O)C(=O)N(C)CC(N)=O [Compound 18, BzLPRDSar] (Bz-LPRD[Sar]-NH2)",IC50,SrtA [1],57.4 ± 1.1 µM
same,inhibition at 200 µM,SrtA [1],108 ± 6.9%
same,biofilm inhibition,"[3]; 8 μg mL^−1, 12 hours",52%
same,biofilm inhibition,"[3]; 32 μg mL^−1, 12 hours",73%
same,biofilm inhibition,"[3]; 128 μg mL^−1, 12 hours",95%
GTEPL [Compound 9],FRET inhibition,SrtA [1],38% and 37.7 ± 3.1%
ELPRDA [Compound 27],FRET inhibition,SrtA [1],26% and 26.2 ± 2.0%
"Nc1nnc(SCc2ccc([N+](=O)[O-])cc2)s1 [Reference (0), 5-((4-nitrobenzyl)thio)-1,3,4-thiadiazol-2-amine, reference compound]","effect on bacterial growth (absorbance plateau, OD600)",[2],did not show any activity
same,IC50,"SrtA [4]; reported covalent inhibitor, ref 42 (supplement ref 4)",26 ± 0.7 µM
same,IC50,"SrtA [4]; reported covalent inhibitor, ref 42 (supplement ref 4), listed as 5-((C4-Nitrobenzyl)thio)-1,3,4-thiadiazol-2-amine",~26 µM
same,FRET inhibition,SrtA [1],77.1 ± 4.1%
Ado-LPRDA [Compound 3],FRET inhibition,SrtA [1],22.6 ± 2.8%
KSFLPATGGAE [Compound 8],FRET inhibition,SrtA [1],18% and 18.1 ± 2.9%
2NapLPRDA [Compound 13],"effect on bacterial growth (absorbance plateau, OD600)",[2],did not have any effect
same,FRET inhibition,SrtA [5],47% and 47.4 ± 1.1 (at 10 μM) %
AcLPRDA [Compound 10],FRET inhibition,SrtA [1],20.7 ± 2.9%
LPRDP [Compound 20],FRET inhibition,SrtA [1],32% and 32.3 ± 8.7%
BzLPRDP [Compound 21],FRET inhibition,SrtA [1],31.0 ± 7.6%
LPET-Sar [Compound 6],FRET inhibition,SrtA [1],19.4 ± 2.6%
PEG2000-LPRDA-NH2,IC50,SrtA [4]; reported SrtA inhibitor,10.6 µM
"H-LPETP-NH2 [Compound 7, LPETP]",IC50,SrtA [1],136.3 ± 1.2 µM
BzLPETP [Compound 19],FRET inhibition,SrtA [1],15.1 ± 3.8%
LPRDA-Ado [Compound 2],FRET inhibition,SrtA [1],30.4 ± 2.8%
"CC(C)C[C@H](NC(=O)c1ccccc1)C(=O)N1CCC[C@H]1C(=O)N[C@@H](CCCNC(=N)N)C(=O)N[C@@H](CC(=O)O)C(=O)N[C@@H](Cc1ccccc1)C(N)=O [Compound 23, BzLPRDF] (Bz-LPRDF-NH2)",IC50,SrtA [1],114 ± 1.3 µM
same,inhibition at 200 µM,SrtA [1],113 ± 26%
"CC(C)C[C@H](N)C(=O)N1CCC[C@H]1C(=O)N[C@@H](CCCNC(=N)N)C(=O)N[C@@H](CC(=O)O)C(=O)N(C)CC(N)=O [Compound 5, LPRD-Sar] (H-LPRD[Sar]-NH2)",FRET inhibition,SrtA [1],68.5 ± 2.6%
same,IC50,SrtA [1],18.9 ± 1.2 µM
same,inhibition at 200 µM,SrtA [1],69%
"H-LPRDF-NH2 [Compound 24, LPRDF]","Fluorescence value (Sytox Green, 533 nm)",S. aureus; 8 μg/ml,315.7 ± 0.6
same,"Fluorescence value (Sytox Green, 533 nm)",S. aureus; 32 μg/ml,299.9 ± 1.2
same,"Fluorescence value (Sytox Green, 533 nm)",S. aureus; 128 μg/ml,283.0 ± 0.9
same,IC50,SrtA [1],136.9 ± 1.2 µM
same,inhibition at 200 µM,SrtA [1],42.2 ± 6%
